Data published in paper PMC6946680, “Modulation of brain cation-Cl^− cotransport via the SPAK kinase inhibitor ZT-1a” (Nature Communications, 2020).

Legend:
Assay in all cases: Kinase profiling panel
Type in all cases: biochemical
[1] = tested on: Aurora B
Method: (§1) Supplementary Table 2. ZT-1a kinase profiling data6.
(§2) ZT-1a was tested at 10 and 1 µM against a panel of 140 recombinant kinases in an enzymatic
(§3) activity-based assay performed by the International Centre for Kinase Profiling in the MRC
(§4) Protein Phosphorylation and Ubiquitylation Unit. Values represent % residual kinase activity

[2] = tested on: BRSK1
Method: as §1, §2, §3, §4

[3] = tested on: BRSK2
Method: as §1, §2, §3, §4

[4] = tested on: CDK2-Cyclin A
Method: as §1, §2, §3, §4

[5] = tested on: CHK2
Method: as §1, §2, §3, §4

[6] = tested on: CK1γ2
Method: as §1, §2, §3, §4

[7] = tested on: CLK2
Method: as §1, §2, §3, §4

[8] = tested on: DAPK1
Method: as §1, §2, §3, §4

[9] = tested on: DYRK1A
Method: as §1, §2, §3, §4

[10] = tested on: EPH-A2
Method: as §1, §2, §3, §4

[11] = tested on: ERK2
Method: as §1, §2, §3, §4

[12] = tested on: ERK8
Method: as §1, §2, §3, §4

[13] = tested on: HER4
Method: as §1, §2, §3, §4

[14] = tested on: HIPK1
Method: as §1, §2, §3, §4

[15] = tested on: HIPK3
Method: as §1, §2, §3, §4

[16] = tested on: IGF-1R
Method: as §1, §2, §3, §4

[17] = tested on: IKKb
Method: as §1, §2, §3, §4

[18] = tested on: IKKe
Method: as §1, §2, §3, §4

[19] = tested on: IRAK1
Method: as §1, §2, §3, §4

[20] = tested on: IRR
Method: as §1, §2, §3, §4

[21] = tested on: JNK2
Method: as §1, §2, §3, §4

[22] = tested on: JNK3
Method: as §1, §2, §3, §4

[23] = tested on: MAPKAP-K2
Method: as §1, §2, §3, §4

[24] = tested on: MARK1
Method: as §1, §2, §3, §4

[25] = tested on: MARK2
Method: as §1, §2, §3, §4

[26] = tested on: MKK2
Method: as §1, §2, §3, §4

[27] = tested on: MKK6
Method: as §1, §2, §3, §4

[28] = tested on: MLK1
Method: as §1, §2, §3, §4

[29] = tested on: MSK1
Method: as §1, §2, §3, §4

[30] = tested on: OSR1
Method: as §1, §2, §3, §4

[31] = tested on: PHK
Method: as §1, §2, §3, §4

[32] = tested on: PKD1
Method: as §1, §2, §3, §4

[33] = tested on: PLK1
Method: as §1, §2, §3, §4

[34] = tested on: RSK1
Method: as §1, §2, §3, §4

[35] = tested on: SGK1
Method: as §1, §2, §3, §4

[36] = tested on: SIK2
Method: as §1, §2, §3, §4

[37] = tested on: SIK3
Method: as §1, §2, §3, §4

[38] = tested on: STK33
Method: as §1, §2, §3, §4

[39] = tested on: SYK
Method: as §1, §2, §3, §4

[40] = tested on: TAK1
Method: as §1, §2, §3, §4

[41] = tested on: TAO1
Method: as §1, §2, §3, §4

[42] = tested on: TLK1
Method: as §1, §2, §3, §4

[43] = tested on: TSSK1
Method: as §1, §2, §3, §4

[44] = tested on: TTK
Method: as §1, §2, §3, §4

Cc1cc(C(C#N)c2ccc(Cl)cc2)c(Cl)cc1NC(=O)c1cc(Cl)ccc1O (stereo not shown) [ZT-1a, 5-chloro-N-(5-chloro-4-((4-chlorophenyl)(cyano)methyl)-2-methylphenyl)-2-hydroxybenzamide]
% residual kinase activity ([1]; 1 µM): 119±6%
% residual kinase activity ([1]; 10 µM): 92±15%
% residual kinase activity ([2]; 1 µM): 108±14%
% residual kinase activity ([2]; 10 µM): 88±22%
% residual kinase activity ([3]; 1 µM): 115±14%
% residual kinase activity ([3]; 10 µM): 104±0%
% residual kinase activity ([4]; 1 µM): 128±12%
% residual kinase activity ([4]; 10 µM): 125±6%
% residual kinase activity ([5]; 1 µM): 106±1%
% residual kinase activity ([5]; 10 µM): 68±6%
% residual kinase activity ([6]; 1 µM): 112±12%
% residual kinase activity ([6]; 10 µM): 124±23%
% residual kinase activity ([7]; 1 µM): 68±12%
% residual kinase activity ([7]; 10 µM): 33±45%
% residual kinase activity ([8]; 1 µM): 131±8%
% residual kinase activity ([8]; 10 µM): 159±11%
% residual kinase activity ([9]; 1 µM): 119±7%
% residual kinase activity ([9]; 10 µM): 103±1%
% residual kinase activity ([10]; 1 µM): 89±23%
% residual kinase activity ([10]; 10 µM): 78±11%
% residual kinase activity ([11]; 1 µM): 111±25%
% residual kinase activity ([11]; 10 µM): 75±3%
% residual kinase activity ([12]; 1 µM): 104±11%
% residual kinase activity ([12]; 10 µM): 63±3%
% residual kinase activity ([13]; 1 µM): 85±8%
% residual kinase activity ([13]; 10 µM): 84±1%
% residual kinase activity ([14]; 1 µM): 98±13%
% residual kinase activity ([14]; 10 µM): 90±4%
% residual kinase activity ([15]; 1 µM): 84±3%
% residual kinase activity ([15]; 10 µM): 76±2%
% residual kinase activity ([16]; 1 µM): 145±2%
% residual kinase activity ([16]; 10 µM): 123±3%
% residual kinase activity ([17]; 1 µM): 101±0%
% residual kinase activity ([17]; 10 µM): 78±3%
% residual kinase activity ([18]; 1 µM): 87±13%
% residual kinase activity ([18]; 10 µM): 59±5%
% residual kinase activity ([19]; 1 µM): 128±2%
% residual kinase activity ([19]; 10 µM): 95±7%
% residual kinase activity ([20]; 1 µM): 105±5%
% residual kinase activity ([20]; 10 µM): 95±4%
% residual kinase activity ([21]; 1 µM): 102±2%
% residual kinase activity ([21]; 10 µM): 147±51%
% residual kinase activity ([22]; 1 µM): 63±15%
% residual kinase activity ([22]; 10 µM): 60±10%
% residual kinase activity ([23]; 1 µM): 91±13%
% residual kinase activity ([23]; 10 µM): 13±7%
% residual kinase activity ([24]; 1 µM): 104±16%
% residual kinase activity ([24]; 10 µM): 91±5%
% residual kinase activity ([25]; 1 µM): 103±8%
% residual kinase activity ([25]; 10 µM): 89±15%
% residual kinase activity ([26]; 1 µM): 126±2%
% residual kinase activity ([26]; 10 µM): 81±27%
% residual kinase activity ([27]; 1 µM): 102±12%
% residual kinase activity ([27]; 10 µM): 82±16%
% residual kinase activity ([28]; 1 µM): 94±4%
% residual kinase activity ([28]; 10 µM): 81±21%
% residual kinase activity ([29]; 1 µM): 114±6%
% residual kinase activity ([29]; 10 µM): 112±14%
% residual kinase activity ([30]; 1 µM): 106±9%
% residual kinase activity ([30]; 10 µM): 98±3%
% residual kinase activity ([31]; 1 µM): 97±3%
% residual kinase activity ([31]; 10 µM): 107±2%
% residual kinase activity ([32]; 1 µM): 89±0%
% residual kinase activity ([32]; 10 µM): 79±10%
% residual kinase activity ([33]; 1 µM): 72±1%
% residual kinase activity ([33]; 10 µM): 93±21%
% residual kinase activity ([34]; 1 µM): 95±2%
% residual kinase activity ([34]; 10 µM): 87±4%
% residual kinase activity ([35]; 1 µM): 73±14%
% residual kinase activity ([35]; 10 µM): 58±5%
% residual kinase activity ([36]; 1 µM): 105±16%
% residual kinase activity ([36]; 10 µM): 76±8%
% residual kinase activity ([37]; 1 µM): 104±9%
% residual kinase activity ([37]; 10 µM): 88±0%
% residual kinase activity ([38]; 1 µM): 114±7%
% residual kinase activity ([38]; 10 µM): 100±5%
% residual kinase activity ([39]; 1 µM): 93±12%
% residual kinase activity ([39]; 10 µM): 93±1%
% residual kinase activity ([40]; 1 µM): 117±22%
% residual kinase activity ([40]; 10 µM): 103±5%
% residual kinase activity ([41]; 1 µM): 66±2%
% residual kinase activity ([41]; 10 µM): 104±2%
% residual kinase activity ([42]; 1 µM): 130±13%
% residual kinase activity ([42]; 10 µM): 124±4%
% residual kinase activity ([43]; 1 µM): 99±2%
% residual kinase activity ([43]; 10 µM): 74±6%
% residual kinase activity ([44]; 1 µM): 104±2%
% residual kinase activity ([44]; 10 µM): 91±5%
